Measurements: paper PMC7278776, “Multidrug Resistance Modulation Activity of Silybin Derivatives and Their Anti-Inflammatory Potential” (Antioxidants, 2020)

Tests used:
ABCC10 = ABCC10 mRNA expression (real-time PCR); format: cell-based, human; details: A2780/DOX
Protocol: (§1) The A2780/DOX cell line was seeded into 5 cm Petri dishes with DMEM medium at 1 × 10^5 cell/mL. […] After 48 h of treatment, the cells were washed with PBS and harvested using the standard trypsin-EDTA procedure. The harvested cells were centrifuged (3200× g; 10 min, 4 °C). The supernatant was discarded, and the pellets were washed with 1.5 mL of cooled PBS (5400× g; 10 min, 4 °C). The washing step was repeated with 1 mL of PBS and the cells were centrifuged again (10,000× g; 3 min, 4 °C). Afterwards, the pellets were resuspended in 1 mL of Trizol (Invitrogen, Carlsbad, CA, USA) and transferred into pre-cooled RNase-free microfuge tubes. The samples were stored at −80 °C.
(§2) A Quant-iT RiboGreen RNA Assay Kit (Invitrogen) was used to determine the RNA concentration using the Infinite M200 plate reader (Tecan, Männedor, Switzerland). The cDNA was prepared from 0.5 µg of total RNA using a RevertAid First Strand Synthesis cDNA Kit (MBI Fermentas, Vilnius, Lithuania). The amplification of the ubiquitin C gene fragment was used to determine the quality of cDNA.
(§3) The experiment was performed using the ViiA7 Real-Time polymerase chain reaction (PCR) System (Life Technologies, Camarillo, CA, USA) with a 384-well block. Before quantitative real-time PCR, the master mix was prepared by mixing 2 µL of 8 × diluted cDNA, 1.75 µL of RNase free water, 1 µL of 5 × HotFIREPol Probe quantitative PCR Mix Plus (Solis Biodyne, Tartu, Estonia) and 0.25 µL of specific 20 × TaqMan Gene Expression Assay (Life Technologies), giving 5 µL of final reaction volume. Cycling parameters were: initial hold at 50 °C for 2 min and denaturation at 95 °C for 10 min, followed by 45 cycles consisting of denaturation at 95 °C for 15 s and annealing/extension at 60 °C for 1 min. After each extension phase, the fluorescence values were acquired. Duplicate samples were used for measurement and samples with a standard deviation of duplicates > 1.0 cycle threshold (Ct) were re-analyzed. The real time PCR procedure was maintained according to MIQE (Minimum information for publication of quantitative real-time PCR experiments) guidelines. The software REST 2009 (Qiagen, Hilden, Germany) served to compare relative transcript levels of genes in the cell line.

A2780/DOX = assay: Viability of A2780/DOX cells (resazurin); details: Homo sapiens, A2780, read-out: IC50 (µM), concentration necessary to halve cell viability
Protocol: To determine the NO production, the medium was mixed with Griess reagent (0.04 g/mL, prepared in deionized water) in a 1:1 ratio. After 15 min, absorbance was recorded at 540 nm. To determine cell viability, the resazurin solution (0.03 mg/mL in PBS) was added to the cells. After 2 h of incubation, fluorescence was recorded (560/590 nm, ex./em.).
A multidrug resistant ovarian sub-line resistant to doxorubicin (A2780/DOX, Sigma-Aldrich) was cultivated in DMEM medium with 10% FBS and 1 × antibiotic antimycotic solution. Every other passage, doxorubicin at the final concentration of 0.1 µM was added to the culture medium to maintain the resistance of the cell line. To perform experiments, the cells were seeded at 1 × 10^5 cell/mL into the wells of a 96-well plate and incubated for 24 h. Afterwards, the cells were washed with PBS and fresh DMEM medium with tested compounds at 10, 20 and 30 µM were added to each well, except for the control wells. Subsequently, the cells were exposed to increasing concentrations of doxorubicin (0.6–20 µM) for 72 h. After incubation, the resazurin assay was performed as described above. The IC50 of doxorubicin was calculated for both the control and the samples and the fold change was counted up. […] The fold change lower than 1 means an antagonistic effect. (1) FOLD CHANGE=IC50 value of DOX cells treated with chemotherapeutic /IC50 value of DOX cells treated with chemotherapeutic and compound

ABCC1 (MRP1) = assay: ABCC1 mRNA expression (real-time PCR); format: cell-based, human
Protocol: (§4) The A2780/DOX cell line was seeded into 5 cm Petri dishes with DMEM medium at 1 × 10^5 cell/mL. After 24 h, the dishes were washed with PBS and new DMEM medium supplemented with doxorubicin (at concentration equal to IC25) and samples (10 µM) were added. After 48 h of treatment, the cells were washed with PBS and harvested using the standard trypsin-EDTA procedure. The harvested cells were centrifuged (3200× g; 10 min, 4 °C). The supernatant was discarded, and the pellets were washed with 1.5 mL of cooled PBS (5400× g; 10 min, 4 °C). The washing step was repeated with 1 mL of PBS and the cells were centrifuged again (10,000× g; 3 min, 4 °C). Afterwards, the pellets were resuspended in 1 mL of Trizol (Invitrogen, Carlsbad, CA, USA) and transferred into pre-cooled RNase-free microfuge tubes. The samples were stored at −80 °C.
as §2, §3

ABCD2 = ABCD2 mRNA expression (real-time PCR); format: cell-based, human; details: A2780/DOX
Protocol: as §1, §2, §3

ABCA1 = ABCA1 mRNA expression (real-time PCR); format: cell-based, human; details: A2780/DOX
Protocol: as §4, §2, §3

ABCB9 = ABCB9 mRNA expression (real-time PCR); format: cell-based, human; details: A2780/DOX, 10 µM combined with doxorubicin at IC25, 48 h
Protocol: as §4, §2, §3

ABCC5 = ABCC5 mRNA expression (real-time PCR); format: cell-based, human; details: A2780/DOX, 10 µM combined with doxorubicin at IC25, 48 h
Protocol: as §4, §2, §3

[1] = ORAC (oxygen radical absorption capacity) assay; details: fluorescein/AAPH; read-out: ORAC, concentration necessary to halve the fluorescence response (IC50)
Protocol: Antioxidant capacity of samples was determined by ORAC (oxygen radical absorption capacity) and CAA (cellular antioxidant activity) assays. ORAC assay was realized by the previously described protocol. Briefly, 50 µL of the fluorescein solution (1.6 µg/mL in phosphate-buffered saline (PBS), pH 7.4) was added by a dispenser (MultiFlo Microplate Dispenser, BioTek Instrument, Winooski, VT, USA) into each well of a 96-well plate. Subsequently, 2 µL of tested compound in the concentration range 1.25–20 µM and 23 µL of PBS were added to the wells. The plate was incubated for 15 min at 37 °C and then 25 µL of AAPH (60 mg/mL) was added to each well. AAPH was replaced with PBS for the negative control. Immediately, the fluorescence was recorded by the microplate reader (SpectraMax i3 Multi-Mode Detection Platform, Molecular Devices, San Jose, CA, USA) for 2 h in 5 min steps (excitation/emission 485/535 nm).

ABCG2 (BCRP) = assay: ABCG2 mRNA expression (real-time PCR); format: cell-based, human
Protocol: as §1, §2, §3

ABCB6 = ABCB6 mRNA expression (real-time PCR); format: cell-based, human; details: A2780/DOX
Protocol: as §1, §2, §3

[2] = 10 µM combined with doxorubicin at IC25, 48 h
[3] = 10 µM, 48 h, without doxorubicin
[4] = A2780/DOX, 10 µM combined with doxorubicin at IC25, 48 h
[5] = A2780/DOX, 10 µM, 48 h, without doxorubicin

| Structure (SMILES) | ABCC10 Expression Difference (ABCC10; [2]) | ABCC10 Expression Difference (ABCC10; [3]) | IC50 (A2780/DOX) | ABCC1 Expression Difference (ABCC1 (MRP1); [4]) | ABCD2 Expression Difference (ABCD2; [2]) | ABCD2 Treated vs. Untreated (ABCD2; [2]) | ABCD2 Expression Difference (ABCD2; [3]) | ABCA1 Expression Difference (ABCA1; [2]) | ABCB9 Expression Difference (ABCB9) | ABCC5 Expression Difference (ABCC5) | IC50 [1] | ABCG2 Expression Difference (ABCG2 (BCRP); [4]) | ABCB6 Expression Difference (ABCB6; [2]) | ABCA1 Expression Difference (ABCA1; [3]) | ABCG2 Expression Difference (ABCG2 (BCRP); [5]) | ABCD2 Treated vs. Untreated (ABCD2; [3]) | ABCC1 Expression Difference (ABCC1 (MRP1); [5]) | ABCB6 Expression Difference (ABCB6; [3]) | other results |
| --- | --- | --- | --- | --- | --- | --- | --- | --- | --- | --- | --- | --- | --- | --- | --- | --- | --- | --- | --- |
| COc1cc([C@H]2Oc3cc(-c4oc5cc(O)cc(O)c5c(=O)c4O)ccc3O[C@@H]2CO)ccc1O [Dehydrosilybin A, 2,3-dehydrosilybin A] | 1.214 | 1.200 | 74.4 ± 4.8 µM | 0.907 | 0.698 | DOWN | 1.205 | 4.172 | 1.109 | 1.116 | 11.4 ± 1.2 µM | 1.259 | 1.149 | – | – | – | – | – | – |
| COc1cc(C2Oc3cc(-c4oc5cc(O)cc(O)c5c(=O)c4O)ccc3OC2CO)ccc1O (centres unmarked) [Dehydrosilybin AB, 2,3-dehydrosilybin] | 1.323 | 1.471 | 33.6 ± 0.4 µM | 1.301 | 0.712 | DOWN | 1.199 | 3.122 | 1.149 | 1.288 | 10.1 µM | 1.698 | 1.262 | 1.803 | 1.921 | – | – | – | – |
| COc1cc([C@@H]2Oc3cc(-c4oc5cc(O)cc(O)c5c(=O)c4O)ccc3O[C@H]2CO)ccc1O [Dehydrosilybin B, 2,3-dehydrosilybin B] | 1.618 | 1.107 | 27.1 ± 0.4 µM | 1.213 | 0.733 | DOWN | 0.860 | 4.412 | 1.218 | 1.385 | 11.8 ± 0.6 µM | 1.948 | 1.343 | – | – | DOWN | – | – | – |
| COc1cc([C@H]2Oc3cc([C@H]4Oc5cc(O)cc(O)c5C(=O)[C@@H]4O)ccc3O[C@@H]2CO)ccc1O [Silybin A, silybin A] | 1.812 | 1.260 | 252 ± 7.6 µM | 1.711 | 0.426 | DOWN | 1.063 | 2.702 | 1.586 | 1.782 | 6.6 ± 0.3 µM | 2.415 | 1.665 | – | – | – | – | – | – |
| COc1cc(C2Oc3cc([C@H]4Oc5cc(O)cc(O)c5C(=O)[C@@H]4O)ccc3OC2CO)ccc1O (some centres unmarked) [Silybin AB, silybin] | 1.855 | 1.857 | 197 ± 4 µM | 1.640 | 0.494 | DOWN | 1.566 | 2.922 | 1.638 | 1.787 | 7.1 ± 0.6 µM | 2.373 | 1.527 | 2.021 | – | – | 2.521 | 1.838 | – |
| COc1cc([C@@H]2Oc3cc([C@H]4Oc5cc(O)cc(O)c5C(=O)[C@@H]4O)ccc3O[C@H]2CO)ccc1O [Silybin B, silybin B] | 1.349 | 0.340 | 194 ± 8.8 µM | – | 0.448 | DOWN | 0.322 | 2.415 | 1.241 | 1.473 | 6.8 ± 0.3 µM | 1.902 | – | – | 0.335 | DOWN | 0.413 | 0.396 | ABCC10 Treated vs. Untreated (ABCC10; [3]): DOWN; downregulation of ABCC1 (MRP1) expression (ABCC1 (MRP1); [3]): 59%; ABCC1 Treated vs. Untreated (ABCC1 (MRP1); [5]): DOWN; downregulation of ABCG2 (BCRP) expression (ABCG2 (BCRP); [3]): 67%; ABCG2 Treated vs. Untreated (ABCG2 (BCRP); [5]): DOWN; ABCB6 Treated vs. Untreated (ABCB6; [3]): DOWN |
